From patent US11878047B2, “ATF5 peptide variants and uses thereof” (Sapience Therapeutics, Inc., priority 2018, dated 2024)
pEC50: −log10 of the molar value. Where two headings read alike, the source gives them in different places. Ends that are not written are not given here.

Columns and labels:
Type in all cases: cell-based, human
HL60 cells = experiment: HL60 cell viability (cytotoxicity) assay, Annexin V FITC/PI flow cytometry
Protocol: HL60 PML suspension cells were set at a density of 3.5×10^3 cells/well in 150 μL of RPMI+1.5% fetal bovine serum (FBS) in a 96 well dish. ST-3, reconstituted at a concentration of 10 mg/mL in 20 mM His, pH 7.5, was added to each well at a volume of 50 μL to a final concentration range of 0-80 μM. Cells were incubated with ST-3 for 48 hours at 37° C. Cell viability was quantified by flow cytometry using an Abcam Annexin V FITC apoptosis detection kit. Briefly, cells were washed with PBS and resuspended in 1× assay buffer containing Annexin V FITC and propidium iodide (PI). Annexin V detects apoptotic cells, and PI stains dead cells. After staining, apoptotic cells show green fluorescence, dead cells show red and green fluorescence, and live cells show little or no fluorescence. Cells were selected for analysis based on forward scatter (FSC) vs. side scatter (SSC), and analyzed by BD Accuri C6 Plus flow cytometer to detect Annexin V-FITC binding (Ex=488 nm; Em=530 nm) using FITC signal detector and PI staining by the phycoerythrin emission signal detector. Percentage of Annexin V^low and PI^low were quantified and presented as % Viability.
Lyophilized ST-3 or ST-3 with glycine (ST-4) or alanine (ST-5) substituted for cysteine at amino acid position 21 was freshly reconstituted in histidine buffer to a stock solution of 5 mg/mL and added to cells at a final concentration range of 0-40 μM. Cells were incubated with ATF5 peptide for 48 hours prior to quantification of cell viability.
(§1) ST-13 was further examined in various human cancer cell lines, as was a second retro-inverso variant, ST-14. Suspension cells (HL60, AML14, or SET2) were set at a density of 3.5×10^3 cells/well in 150 μL of RPMI+1.5% fetal bovine serum (FBS) in a tissue culture-treated 96 well dish. ATF5 peptide, reconstituted at a concentration of 10 mg/mL in 20 mM His, pH 7.5, was added to each well at a volume of 50 μL to a final concentration range of 0-80 μM. Cells were incubated with peptide for 48 hours at 37° C. Cell viability was quantified by flow cytometry using an Abcam Annexin V FITC apoptosis detection kit. Briefly, cells were washed with PBS and resuspended in 1× assay buffer containing Annexin V FITC and propidium iodide (PI). Cells were analyzed by BD Accuri C6 Plus flow cytometer to detect Annexin V-FITC binding (Ex=488 nm; Em=530 nm) using FITC signal detector, and to detect PI staining using the phycoerythrin emission signal detector. Percentage of Annexin V^low and PI^low were quantified and presented as % Viability. EC50 values were calculated using GraphPad Prism v.7 XML.

[1] = test system: AML14 acute myeloid leukemia cells
Protocol: as §1

[2] = test system: SET2 acute myeloid leukemia cells
Protocol: as §1

[3] = test system: neoplastic cells / wide range of tumor cell types; experiment: Cytotoxic activity across tumor cell types
Protocol: as §1, with “Briefly, cells were washed with PBS and resuspended in 1× assay buffer containing Annexin V FITC and propidium iodide (PI).” left out, “XML. […] Cell viability was determined as described above for suspension cells or by MTT assay (MCF7 cells). Alternatively, cells were gently removed from the cell culture plate following trypsinization with 2.5% trypsin, and cell viability was quantified by flow cytometry using an Abcam Annexin V FITC apoptosis detection kit, as described above.” for “XML.”

MCF7 breast cancer cells = test system: MCF7 breast cancer cells
Protocol: Additionally, adherent A375, MCF7, U251, DU145, U87, and A549 cells were set at a density of 3.5×10^3 cells/well in 200 μL of media on day −1. On day 0, media was removed and replenished with 150 μL of fresh media, and cells were treated with ATF5 peptide as described. Following a 48-hour incubation at 37° C., floating cells were collected, adherent cells were washed with Dulbecco's Phosphate Buffered Saline (DPBS), dissociated from the dish with 50 μL 2.5% trypsin at RT, and combined with floating cells. Cell viability was determined as described above for suspension cells or by MTT assay (MCF7 cells). Alternatively, cells were gently removed from the cell culture plate following trypsinization with 2.5% trypsin, and cell viability was quantified by flow cytometry using an Abcam Annexin V FITC apoptosis detection kit, as described above.

[4] = HL60 cell viability assay, 48 hours

Row | Compound | cytotoxic activity compared with other peptides (HL60 cells; [4]) | other results
1 | RQIKIWFQNRRMKWKKLEGECQGLEARNRELKERAEAV [ST-6] | comparable activity to ST-3 | 
2 | RQIKIWFQNRRMKWKKLEGRCQGLRAENRELEERAESV [ST-9] | significantly increased over that of ST-3 | 
3 | RQIKIWFQNRRMKWKKLEGEAQGLEARNRELKERAESV [ST-5] | attenuated but not ablated | 
4 | RQIKIWFQNRRMKWKKLEGEGQGLEARNRELKERAESV [ST-4] | attenuated but not ablated | 
5 | CC[C@@H](C)[C@@H](NC(=O)[C@@H](CCCCN)NC(=O)[C@H](NC(=O)[C@@H](Cc1c[nH]c2ccccc12)NC(=O)[C@@H](Cc1ccccc1)NC(=O)[C@@H](CCC(N)=O)NC(=O)[C@@H](CC(N)=O)NC(=O)[C@@H](CCCNC(=N)N)NC(=O)[C@@H](CCCNC(=N)N)NC(=O)[C@@H](CCSC)NC(=O)[C@@H](CCCCN)NC(=O)[C@@H](Cc1c[nH]c2ccccc12)NC(=O)[C@@H](CCCCN)NC(=O)[C@@H](CCCCN)NC(=O)[C@@H](CC(C)C)NC(=O)[C@@H](CCC(=O)O)NC(=O)CNC(=O)[C@@H](CCCNC(=N)N)NC(=O)[C@@H](C)NC(=O)[C@@H](CCC(N)=O)NC(=O)CNC(=O)[C@@H](CC(C)C)NC(=O)[C@@H](CCCNC(=N)N)NC(=O)[C@@H](C)NC(=O)[C@@H](CCC(=O)O)NC(=O)[C@@H](CC(C)C)NC(=O)[C@@H](CCCNC(=N)N)NC(=O)[C@@H](CCC(=O)O)NC(=O)[C@@H](CC(C)C)NC(=O)[C@@H](CCC(=O)O)NC(=O)[C@@H](CCC(=O)O)NC(=O)[C@@H](CCCNC(=N)N)NC(=O)[C@@H](C)NC(=O)[C@@H](CCC(=O)O)NC(=O)[C@@H](C)NC(=O)[C@H](N)C(C)C)[C@H](C)CC)C(=O)N[C@H](CCC(N)=O)C(=O)N[C@H](CCCNC(=N)N)C(=O)O [ST-13] |  | pEC50 [1]: > 6.00; pEC50 [2]: 4.75; cytotoxic activity in tumor / neoplastic cells [3]: significant cytotoxic activity; pEC50 (MCF7 breast cancer cells): > 6.00; cytotoxic activity compared with other peptides (HL60 cells): comparable activity to ST-11, and superior activity to ST-3
6 | RQIKIWFQNRRMKWKKLEGRAQGLRAELRELEERAEAV [ST-11] | improved cytotoxic activity over ST-3 | 
7 | RQIKIWFQNRRMKWKKLEGRCQGLRAELRELEERAEAV [ST-10] | comparable to that of ST-9 | 
8 | RQIKIWFQNRRMKWKKLEGECQGLEARNRELKERAESV [ST-3, reference compound] |  | cytotoxic activity in tumor / neoplastic cells [3]: induces cell death in neoplastic cells
